Results published in ChEMBL document CHEMBL1201862, “PubChem BioAssay data set” (2004).
Several values for one entry are separate records, joined by “and”; a condition that tells them apart may be missing. Equal entries are not always repeated.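 A five-concentration, 48-hour dose response in 96-well plates underlies each endpoint, interpolated linearly between surrounding concentrations. The concentration for 50% growth inhibition is given as GI50.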 Activity calls are given as the source filed them. Rule as the data show it: active = GI50 up to about 1.1 µM and inactive = higher.

What was measured:
Test in all cases: growth of human tumour cells (NCI), 48 h
[1] = test system: CAKI-1
[2] = test system: COLO 205
[3] = test system: HCT-116
[4] = test system: HCT-15
[5] = test system: HOP-62
[6] = test system: KM12
[7] = test system: MDA-MB-435
[8] = test system: MDA-N
[9] = test system: NCI-H23
[10] = test system: NCI/ADR-RES
[11] = test system: OVCAR-5
[12] = test system: PC-3
[13] = test system: RPMI-8226
[14] = test system: SF-295
[15] = test system: SF-539
[16] = test system: SK-OV-3
[17] = test system: SNB-19
[18] = test system: UO-31
[19] = test system: HT-29
[20] = test system: NCI-H522

SMILES	GI50 [1]	GI50 [2]	GI50 [3]	GI50 [4]	GI50 [5]	GI50 [6]	GI50 [7]	GI50 [8]	GI50 [9]	GI50 [10]	GI50 [11]	GI50 [12]	GI50 [13]	GI50 [14]	GI50 [15]	GI50 [16]	GI50 [17]	GI50 [18]	GI50 [19]	GI50 [20]
O=c1oc2ccccc2c2c(=O)c3ccc(OC/C(=N/O)c4ccc(Cl)cc4)cc3oc12	10.6 µM (inactive)	15 µM (inactive)	11.2 µM (inactive)	7.4 µM	15.1 µM (inactive)	3.11 µM (inactive)	2.47 µM (inactive)	3.57 µM (inactive)	18.4 µM (inactive)	7.35 µM (inactive)	17.3 µM (inactive)	7.48 µM (inactive)	11.7 µM (inactive)	1.89 µM (inactive)	7.89 µM (inactive)	11.7 µM (inactive)	14.9 µM (inactive)	14.3 µM (inactive)	–	–
C=C(C)CC1=C(OCC)C(OC)(OCC)C1=O (stereo not given)	> 100 µM (inactive)	> 100 µM (inactive)	> 100 µM (inactive)	> 100 µM	> 100 µM (inactive)	> 100 µM (inactive)	> 100 µM (inactive)	> 100 µM (inactive)	> 100 µM (inactive)	> 100 µM (inactive)	> 100 µM (inactive)	> 100 µM (inactive)	–	> 100 µM (inactive)	> 100 µM (inactive)	> 100 µM (inactive)	> 100 µM (inactive)	> 100 µM (inactive)	> 100 µM (inactive)	47.8 µM (inactive)
S=C(NCCc1ccccn1)c1nc[nH]c1C(=S)NCCc1ccccn1	57.1 µM (inactive)	49.7 µM (inactive)	34 µM (inactive)	34.6 µM	37.1 µM (inactive)	24 µM (inactive)	30.1 µM (inactive)	41.7 µM (inactive)	39.4 µM (inactive)	20.5 µM (inactive)	> 100 µM (inactive)	39.2 µM (inactive)	26 µM (inactive)	25.1 µM (inactive)	–	> 100 µM (inactive)	60.3 µM (inactive)	29 µM (inactive)	> 100 µM (inactive)	–
CC(=O)C1=C(C)N2C(=NC3=C(CCc4ccccc43)C2c2cccc(Br)c2)S1 (stereo not given)	–	88.1 µM (inactive)	30.8 µM (inactive)	74.8 µM	> 100 µM (inactive)	49.7 µM (inactive)	> 100 µM (inactive)	> 100 µM (inactive)	99.1 µM (inactive)	> 100 µM (inactive)	> 100 µM (inactive)	> 100 µM (inactive)	16.8 µM (inactive)	> 100 µM (inactive)	> 100 µM (inactive)	> 100 µM (inactive)	> 100 µM (inactive)	> 100 µM (inactive)	22.1 µM (inactive)	–
Cc1ccc(S(=O)(=O)N/N=C2\CC3CC4CCC2C4C3)cc1 (stereo not given)	> 100 µM (inactive)	> 100 µM (inactive)	> 100 µM (inactive)	> 100 µM	> 100 µM (inactive)	> 100 µM (inactive)	> 100 µM (inactive)	> 100 µM (inactive)	> 100 µM (inactive)	–	> 100 µM (inactive)	> 100 µM (inactive)	> 100 µM (inactive)	> 100 µM (inactive)	> 100 µM (inactive)	> 100 µM (inactive)	–	> 100 µM (inactive)	> 100 µM (inactive)	> 100 µM (inactive)
C=C1C(=O)OC2/C=C(\CO)C(OC(C)=O)CC(O)/C(C)=C/C(OC(=O)C(C)CC)C12 (stereo not given)	27.5 µM (inactive) and 24.2 µM (inactive)	14 µM (inactive) and 11.8 µM (inactive)	14 µM (inactive) and 19.7 µM (inactive)	38.6 µM and 30.2 µM	> 100 µM (inactive)	–	20.3 µM (inactive)	18.3 µM (inactive)	24.2 µM (inactive) and 17.2 µM (inactive)	> 100 µM (inactive)	–	39.2 µM (inactive)	–	> 100 µM (inactive)	24.8 µM (inactive) and 19.2 µM (inactive)	> 100 µM (inactive)	50.1 µM (inactive) and 75.7 µM (inactive)	87.1 µM (inactive) and 65.5 µM (inactive)	16.3 µM (inactive) and 21 µM (inactive)	4.57 µM (inactive) and 3.4 µM (inactive)
CC(C)C/C=C/C1=NN(c2cccc(S(=O)(=O)O)c2)C2(C1)SCC(=O)N2c1nc2ccccc2s1 (stereo not given)	66.8 µM (inactive)	> 100 µM (inactive)	67.8 µM (inactive)	91.6 µM	–	36.7 µM (inactive)	31.1 µM (inactive)	–	99.5 µM (inactive)	71.6 µM (inactive)	> 100 µM (inactive)	40 µM (inactive)	21.6 µM (inactive)	–	61.4 µM (inactive)	–	50 µM (inactive)	50.1 µM (inactive)	> 100 µM (inactive)	19.8 µM (inactive)
O=C1CCSC(=S)N1c1ccc(Br)c(Cl)c1	29.6 µM (inactive)	20.2 µM (inactive)	36.5 µM (inactive)	20.4 µM	31.9 µM (inactive)	31.2 µM (inactive)	26.8 µM (inactive)	–	53.2 µM (inactive)	42.9 µM (inactive)	43.9 µM (inactive)	34.5 µM (inactive)	33.7 µM (inactive)	32.7 µM (inactive)	33 µM (inactive)	37.6 µM (inactive)	23.7 µM (inactive)	30.2 µM (inactive)	16.1 µM (inactive)	21 µM (inactive)
Nc1ncnc2c1nc(Cl)n2C1OC2COP(=O)(O)OC2C1O (stereo not given)	6.04 µM (inactive)	5.55 µM (inactive)	3.09 µM (inactive)	3.76 µM	–	41.6 µM (inactive)	7.82 µM (inactive)	6.43 µM (inactive)	7.24 µM (inactive)	8.39 µM (inactive)	23.3 µM (inactive)	–	5.53 µM (inactive)	> 35.4 µM (inactive)	26.8 µM (inactive)	3.01 µM (inactive)	> 100 µM (inactive)	5.87 µM (inactive)	4.57 µM (inactive)	3.63 µM (inactive)
COc1ccc(C(=O)Nc2ccc(O)c(=O)cc2)cc1	36.9 µM (inactive)	24.2 µM (inactive)	33.1 µM (inactive)	26.9 µM	80.9 µM (inactive)	39.4 µM (inactive)	43.4 µM (inactive)	–	89.7 µM (inactive)	42.3 µM (inactive)	> 100 µM (inactive)	40 µM (inactive)	26.9 µM (inactive)	37.8 µM (inactive)	33.2 µM (inactive)	–	36.1 µM (inactive)	20.9 µM (inactive)	20.8 µM (inactive)	25.8 µM (inactive)
CC(C)(C)[C@@H]1NC(=O)CN1C(=O)OCc1ccccc1	–	> 100 µM (inactive)	> 100 µM (inactive)	> 100 µM	> 100 µM (inactive)	> 100 µM (inactive)	> 100 µM (inactive)	–	> 100 µM (inactive)	> 100 µM (inactive)	> 100 µM (inactive)	> 100 µM (inactive)	> 100 µM (inactive)	> 100 µM (inactive)	> 100 µM (inactive)	> 100 µM (inactive)	> 100 µM (inactive)	> 100 µM (inactive)	> 100 µM (inactive)	> 100 µM (inactive)
N#CC12COC3(CCCCC3C1(C#N)C#N)OC2=N (stereo not given)	3.59 µM (inactive)	6.4 µM (inactive)	12.6 µM (inactive)	–	–	> 10 µM (inactive)	18.9 µM (inactive)	12.9 µM (inactive)	16.7 µM (inactive)	28.2 µM (inactive)	16.6 µM (inactive)	13.8 µM (inactive)	–	19.5 µM (inactive)	13.9 µM (inactive)	45.7 µM (inactive)	17.8 µM (inactive)	15.2 µM (inactive)	11.3 µM (inactive)	–
Oc1nncc2[nH]c(-c3ccccc3)cc12	45.8 µM (inactive)	43.1 µM (inactive)	57.7 µM (inactive)	45.8 µM	61.5 µM (inactive)	35.1 µM (inactive)	28.2 µM (inactive)	38.9 µM (inactive)	48.9 µM (inactive)	25.2 µM (inactive)	95.1 µM (inactive)	30.1 µM (inactive)	56.4 µM (inactive)	26.2 µM (inactive)	–	63.7 µM (inactive)	> 100 µM (inactive)	67.1 µM (inactive)	36.4 µM (inactive)	–
Cn1c2ccccc2n2c3ccccc3c3nnc(N)c-3c12	76.4 µM (inactive)	32.4 µM (inactive)	35.2 µM (inactive)	> 100 µM	9.2 µM (inactive)	61.5 µM (inactive)	> 88.7 µM (inactive)	–	17.5 µM (inactive)	> 100 µM (inactive)	> 100 µM (inactive)	68.2 µM (inactive)	> 100 µM (inactive)	5.58 µM (inactive)	–	> 95.1 µM (inactive)	1.45 µM (inactive)	> 100 µM (inactive)	> 100 µM (inactive)	8.53 µM (inactive)
O=C1c2c(ccc3c2CCC3)CC1Cc1ccc2c(c1)CCC2 (stereo not given)	–	20.3 µM (inactive)	6.55 µM (inactive)	11 µM	28.1 µM (inactive)	25.2 µM (inactive)	24 µM (inactive)	30.8 µM (inactive)	21.6 µM (inactive)	28.2 µM (inactive)	90.2 µM (inactive)	–	9.91 µM (inactive)	26.9 µM (inactive)	91 µM (inactive)	53.3 µM (inactive)	48.5 µM (inactive)	56.6 µM (inactive)	17.6 µM (inactive)	–
O=c1c2c3c(sc2nc2n1N=C(c1ccc(Br)cc1)CS2)CCCC3	> 100 µM (inactive)	> 100 µM (inactive)	> 100 µM (inactive)	> 100 µM	> 100 µM (inactive)	> 100 µM (inactive)	> 100 µM (inactive)	> 100 µM (inactive)	> 100 µM (inactive)	> 100 µM (inactive)	> 100 µM (inactive)	> 100 µM (inactive)	–	> 100 µM (inactive)	> 100 µM (inactive)	> 100 µM (inactive)	> 100 µM (inactive)	> 100 µM (inactive)	> 100 µM (inactive)	> 100 µM (inactive)
